Patent US20250122174A1 (Shenzhen Yuanli Shenwan Innovative Medicine Co., Ltd., priority 2022, published 2025)

Target: HPK1 (Homo sapiens (Human), UniProt Q92918)
Experiment: HPK1 Inhibition Assay (ADP-Glo kinase assay)
Type: biochemical
Settings: ATP 10 μM
Summary of the method: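 ADP-Glo luminescence read-out after 1 h room-temperature kinase reaction with 10 μM ATP and 0.1 μg/ml MBP. Recombinant human HPK1 at 7.5 ng/μl; buffer 40 mM Tris pH 7.5, 20 mM MgCl2. Compounds serially diluted 5-fold over 10 points from 10 mM DMSO stock.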

HPK1, sequence (Q92918 1-346 limits assumed): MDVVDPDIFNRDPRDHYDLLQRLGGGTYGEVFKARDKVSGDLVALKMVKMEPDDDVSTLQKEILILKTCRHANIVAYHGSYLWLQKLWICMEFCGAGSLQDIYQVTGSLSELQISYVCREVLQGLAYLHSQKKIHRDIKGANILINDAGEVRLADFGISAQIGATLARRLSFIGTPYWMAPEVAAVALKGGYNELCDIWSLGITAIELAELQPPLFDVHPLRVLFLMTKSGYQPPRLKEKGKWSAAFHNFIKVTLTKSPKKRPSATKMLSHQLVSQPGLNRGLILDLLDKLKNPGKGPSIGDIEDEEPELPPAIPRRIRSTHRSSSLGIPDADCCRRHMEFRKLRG

Row | SMILES | IC50 [µM]
1 | Cc1nc2c(N3C[C@H](N)C(F)(F)C3)c(NC(=O)c3ccc(=O)n(-c4c(F)cccc4F)n3)ccc2n1C [Example 94, (S)-N-(4-(4-amino-3,3-difluoropyrrolidin-1-yl)-1,2-dimethyl-1H-benzo[d]imidazol-5-yl)-1-(2,6-difluorophenyl)-6-oxo-1,6-dihydropyridazine-3-carboxamide] | < 0.1
2 | Cc1nc2c(N3CC[C@H](N)C3)c(NC(=O)c3ccc(=O)n(-c4c(F)cccc4F)n3)ccc2n1C [Example 72, (S)-N-(4-(3-aminopyrrolidin-1-yl)-1,2-dimethyl-1H-benzo[d]imidazol-5-yl)-1-(2,6-difluorophenyl)-6-oxo-1,6-dihydropyridazine-3-carboxamide] | < 0.1
3 | COCCn1c(C)nc2c(N3CC[C@H](N)C3)c(NC(=O)c3ccc(=O)n(-c4c(F)cccc4F)n3)ccc21 [Example 89, (S)-N-(4-(3-aminopyrrolidin-1-yl)-1-(2-methoxyethyl)-2-methyl-1H-benzo[d]imidazol-5-yl)-1-(2,6-difluorophenyl)-6-oxo-1,6-dihydropyridazine-3-carboxamide] | < 0.1
4 | Cn1ncc2c(N3C[C@H](N)C4(CC4)C3)c(NC(=O)c3ccc(=O)n(-c4c(F)cccc4F)n3)ccc21 [Example 174, (R)-N-(4-(7-amino-5-azaspiro[2.4]heptan-5-yl)-1-methyl-1H-indazol-5-yl)-1-(2,6-difluorophenyl)-6-oxo-1,6-dihydropyridazine-3-carboxamide] | < 0.1
5 | CC(C)c1nc2c(N3CCC4(CCNC4)C3)c(NC(=O)c3ccc(=O)n(-c4c(F)cccc4F)n3)ccc2n1C (stereo not drawn) [Example 136, 1-(2,6-difluorophenyl)-N-(2-isopropyl-1-methyl-4-(2,7-diazaspiro[4.4]nonan-2-yl)-1H-benzo[d]imidazol-5-yl)-6-oxo-1,6-dihydropyridazine-3-carboxamide] | < 0.1
6 | COc1cccc(F)c1-c1cccc(C(=O)Nc2ccc3c(nc(C)n3C)c2N2CC[C@H](N)C2)[n+]1[O-] [Example 62, 2-((4-((S)-3-aminopyrrolidin-1-yl)-1,2-dimethyl-1H-benzo[d]imidazol-5-yl)carbamoyl)-6-(2-fluoro-6-methoxyphenyl)pyridine 1-oxide] | 0.1 to 1
7 | COc1cccc(F)c1-n1nc(C(=O)Nc2ccc3c(nc(C)n3C)c2N2CC[C@H](N)C2)ccc1=O [Example 66, (S)—N-(4-(3-aminopyrrolidin-1-yl)-1,2-dimethyl-1H-benzo[d]imidazol-5-yl)-1-(2-fluoro-6-methoxyphenyl)-6-oxo-1,6-dihydropyridazine-3-carboxamide] | < 0.1
8 | COc1cccc(F)c1-n1cccc(C(=O)Nc2cc(F)c3c(cnn3C)c2N2C[C@H]3C[C@@H]2CN3)c1=O [Example 53, N-(4-((1R,4R)-2,5-diazabicyclo[2.2.1]heptan-2-yl)-7-fluoro-1-methyl-1H-indazol-5-yl)-1-(2-fluoro-6-methoxyphenyl)-2-oxo-1,2-dihydropyridine-3-carboxamide] | 0.1 to 1
9 | Cn1c(C(C)(C)C)nc2c(N3CC[C@@](C)(N)C3)c(NC(=O)c3ccc(=O)n(-c4c(F)cccc4F)n3)ccc21 (single isomer, unassigned) [Example 100, ®-N-(4-(3-amino-3-methylpyrrolidin-1-yl)-2-(tert-butyl)-1-methyl-1H-benzo 111 midazolezol-5-yl)-1-(2,6-difluorophenyl)-6-oxo-1,6-dihydropyridazine-3-carboxamide] | < 0.1
10 | [2H]C([2H])([2H])n1ncc2c(N3C[C@@H](C)[C@@H](N)C3)c(NC(=O)c3ccc(=O)n(-c4c(F)cccc4F)n3)ccc21 [Example 171, N-(4-((3R,4R)-3-amino-4-methylpyrrolidin-1-yl)-1-(methyl-d3)-1H-indazol-5-yl)-1-(2,6-difluorophenyl)-6-oxo-1,6-dihydropyridazine-3-carboxamide] | < 0.1
11 | COc1cccc(F)c1-c1nccc(C(=O)Nc2ccc(-c3cnccc3C#N)cc2N2CC[C@H](N)C2)c1F [Example 12, N-(2-((S)-3-aminopyrrolidin-1-yl)-4-(4-cyanopyridin-3-yl)phenyl)-3-fluoro-2-(2-fluoro-6-methoxyphenyl)isonicotinamide] | < 0.1
12 | CC(C)c1nc2c(N3CC[C@H](CN)C3)c(NC(=O)c3ccc(=O)n(-c4c(F)cccc4F)n3)ccc2n1C [Example 115, (R)-N-(4-(3-(aminomethyl)pyrrolidin-1-yl)-2-isopropyl-1-methyl-1H-benzo[d]imidazol-5-yl)-1-(2,6-difluorophenyl)-6-oxo-1,6-dihydropyridazine-3-carboxamide] | < 0.1
13 | COc1cccc(F)c1-c1nc(C(=O)Nc2cc(F)ccc2N2C[C@@H]3C[C@H]2CN3)cs1 [Example 64, N-(2-((1S,4S)-2,5-diazabicyclo[2.2.1]heptan-2-yl)-5-fluorophenyl)-2-(2-fluoro-6-methoxyphenyl)thiazole-4-carboxamide] | 0.1 to 1

More lines, now with the values ahead:

Row | IC50 [µM] | SMILES
14 | < 0.1 | N[C@@H]1CCN(c2c(NC(=O)c3ccc(=O)n(-c4c(F)cccc4F)n3)ccc3nn(CC4CC4)cc23)C1 [Example 330, (R)-N-(4-(3-aminopyrrolidin-1-yl)-2-(cyclopropylmethyl)-2H-indazol-5-yl)-1-(2,6-difluorophenyl)-6-oxo-1,6-dihydropyridazine-3-carboxamide]
15 | < 0.1 | CC(C)(C)n1ncc2c(N3C[C@H](N)C4(CC4)C3)c(NC(=O)c3ccc(=O)n(-c4c(F)cccc4F)n3)ccc21 [Example 302, N-[4-[(7R)-7-amino-5-azaspiro[2.4]heptan-5-yl]-1-tert-butyl-indazol-5-yl]-1-(2,6-difluorophenyl)-6-oxo-pyridazine-3-carboxamide]
16 | < 0.1 | C[C@H]1CN(c2c(NC(=O)c3ccc(=O)n(-c4c(F)cccc4F)n3)ccc3nn(C45CC(C4)C5)cc23)C[C@@H]1N [Example 320, N-(4-((3R,4S)-3-amino-4-methylpyrrolidin-1-yl)-2-(bicyclo[1.1.1]pentan-1-yl)-2H-indazol-5-yl)-1-(2,6-difluorophenyl)-6-oxo-1,6-dihydropyridazine-3-carboxamide]
17 | < 0.1 | CC(C)n1cc2c(N3C[C@@H](N)C(C)(C)C3)c(NC(=O)c3ccc(=O)n(-c4c(F)cccc4F)n3)ccc2n1 [Example 228, (S)-N-(4-(4-amino-3,3-dimethylpyrrolidin-1-yl)-2-isopropyl-2H-indazol-5-yl)-1-(2,6-difluorophenyl)-6-oxo-1,6-dihydropyridazine-3-carboxamide]
18 | < 0.1 | C[C@]1(O)CCN(c2cc(-c3cnccc3C#N)ccc2NC(=O)c2ccc(=O)n(-c3c(F)cccc3F)n2)C1 (single isomer, unassigned) [Example 354]
19 | < 0.1 | C[C@@H]1CN(c2c(NC(=O)c3ccc(=O)n(-c4c(F)cccc4F)n3)ccc3nn(C45CCC(CC4)C5)cc23)C[C@@H]1N [Example 306, N-(4-((3R,4R)-3-amino-4-methylpyrrolidin-1-yl)-2-(bicyclo[2.2.1]heptan-1-yl)-2H-indazol-5-yl)-1-(2,6-difluorophenyl)-6-oxo-1,6-dihydropyridazine-3-carboxamide]
20 | < 0.1 | COCCn1ncc2c(N3CCC(N)CC3)c(NC(=O)c3ccc(=O)n(-c4c(F)cccc4F)n3)cc(F)c21 [Example 284, N-(4-(4-aminopiperidin-1-yl)-7-fluoro-1-(2-methoxyethyl)-1H-indazol-5-yl)-1-(2,6-difluorophenyl)-6-oxo-1,6-dihydropyridazine-3-carboxamide]
21 | < 0.1 | CC(C)n1cc2c(N3C[C@@H]4C[C@H]3CN4)c(NC(=O)c3ccc(=O)n(-c4c(F)cccc4F)n3)cc(F)c2n1 [Example 233, N-(4-((1S,4S)-2,5-diazabicyclo[2.2.1]heptan-2-yl)-7-fluoro-2-isopropyl-2H-indazol-5-yl)-1-(2,6-difluorophenyl)-6-oxo-1,6-dihydropyridazine-3-carboxamide]
22 | < 0.1 | Cc1cc(NC(=O)c2ccc(=O)n(-c3c(F)cccc3F)n2)c(N2CC[C@@H](N)C2)c2cnn(C(C)C)c12 [Example 185, (R)-N-(4-(3-aminopyrrolidin-1-yl)-1-isopropyl-7-methyl-1H-indazol-5-yl)-1-(2,6-difluorophenyl)-6-oxo-1,6-dihydropyridazine-3-carboxamide]
23 | < 0.1 | N#Cc1ccncc1-c1ccc(NC(=O)c2ccc(=O)n(-c3c(F)cccc3F)n2)c(N2CCNCC2)c1 [Example 342, N-(4-(4-cyanopyridin-3-yl)-2-(piperazin-1-yl)phenyl)-1-(2,6-difluorophenyl)-6-oxo-1,6-dihydropyridazine-3-carboxamide]
24 | < 0.1 | N[C@@H]1CCN(c2c(NC(=O)c3ccc(=O)n(-c4c(F)cccc4F)n3)ccc3nn(CC(F)(F)F)cc23)C1 [Example 338, (R)-N-(4-(3-aminopyrrolidin-1-yl)-2-(2,2,2-trifluoroethyl)-2H-indazol-5-yl)-1-(2,6-difluorophenyl)-6-oxo-1,6-dihydropyridazine-3-carboxamide]
25 | < 0.1 | C[C@@H]1CN(c2c(NC(=O)c3ccc(=O)n(-c4c(F)cccc4F)n3)ccc3nn(C45CC6CC(CC(C6)C4)C5)cc23)C[C@@H]1N [Example 305, N-(2-((3S,5S,7S)-adamantan-1-yl)-4-((3R,4R)-3-amino-4-methylpyrrolidin-1-yl)-2H-indazol-5-yl)-1-(2,6-difluorophenyl)-6-oxo-1,6-dihydropyridazine-3-carboxamide]
26 | < 0.1 | C[C@@H]1CN(c2c(NC(=O)c3ccc(=O)n(-c4c(F)cccc4F)n3)ccc3nn(C(C)(C)C(C)(C)C)cc23)C[C@@H]1N [Example 245, N-(4-((3R,4R)-3-amino-4-methylpyrrolidin-1-yl)-2-(2,3,3-trimethylbutan-2-yl)-2H-indazol-5-yl)-1-(2,6-difluorophenyl)-6-oxo-1,6-dihydropyridazine-3-carboxamide]
27 | < 0.1 | CC1(C)CN(c2c(NC(=O)c3ccc(=O)n(-c4c(F)cccc4F)n3)ccc3c2cnn3[C@@H]2CCOC2)C[C@@H]1N [Example 267, N-(4-((R)-4-amino-3,3-dimethylpyrrolidin-1-yl)-1-((R)-tetrahydrofuran-3-yl)-1H-indazol-5-yl)-1-(2,6-difluorophenyl)-6-oxo-1,6-dihydropyridazine-3-carboxamide]
